We go through twelve compounds from patent US20260022142A1, “MACROCYCLIC IMMUNOMODULATORS” (Bristol-Myers Squibb Company, priority 2022, published 2026).

Numbered stars: 1 amine (or outer) side, 2 acyl side, 3 side chain; on linkers, the order of the positions; unused ones are H or OH. Bridge positions count the residues as written; N and C are the ends. Square brackets hold non-standard residues; d marks the D form. Peptide text beside a SMILES is read from it. * marks the point of attachment. ξ: configuration not given here. Phe(4-CF3) = N[C@@H](Cc1ccc(C(F)(F)F)cc1)C(=O)O; Phe(4-COOH) = N[C@@H](Cc1ccc(C(=O)O)cc1)C(=O)O; Phe(4-CH2NH2) = NCc1ccc(C[C@H](N)C(=O)O)cc1; Bip = N[C@@H](Cc1ccc(-c2ccccc2)cc1)C(=O)O; Phe(4-CN) = N#Cc1ccc(C[C@H](N)C(=O)O)cc1; Phe(3-Me) = Cc1cccc(C[C@H](N)C(=O)O)c1; NH(CH2)12COOH = O=C(O)CCCCCCCCCCCCN*; Val(3-OH) = CC(C)(O)[C@H](N)C(=O)O; X17 = O=C(C(CN1CCOCC1)N[*:1])[*:2]; 4Pal = N[C@@H](Cc1ccncc1)C(=O)O; Cha = N[C@@H](CC1CCCCC1)C(=O)O; Cit = NC(=O)NCCC[C@H](N)C(=O)O; Ile(3ξ) = CCC(C)[C@H](N)C(=O)O; Thr(3ξ) = CC(O)[C@H](N)C(=O)O; Carboxymethyl = O=C(O)C*; Orn = NCCC[C@H](N)C(=O)O; Aun = NCCCCCCCCCCC(=O)O; Dab = NCC[C@H](N)C(=O)O; Abu = CC[C@H](N)C(=O)O; Dap = NC[C@H](N)C(=O)O; AEEA = NCCOCCOCC(=O)O

T1 sequence (Q15116 25-288): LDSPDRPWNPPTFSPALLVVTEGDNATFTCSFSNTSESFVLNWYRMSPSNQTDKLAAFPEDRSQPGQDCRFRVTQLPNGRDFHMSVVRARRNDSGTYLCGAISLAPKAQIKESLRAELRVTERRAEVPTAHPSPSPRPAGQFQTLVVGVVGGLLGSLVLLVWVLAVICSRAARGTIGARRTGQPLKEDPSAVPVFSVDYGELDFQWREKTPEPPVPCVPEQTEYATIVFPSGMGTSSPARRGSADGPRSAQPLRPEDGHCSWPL

The assay addresses T1, PD-1/PD-L1 interaction (PE-labeled human PD-L1-Ig binding to Jurkat cell line over-expressing human PD-1) (Homo sapiens, UniProt Q15116).
T1 construct: expressed in transfected cells; host or cells: Jurkat
Nature of the assay: Jurkat-PD-1 Cell Binding High-Content Screening Assay (CBA). It is filed as cell-based. The conditions noted are these: Jurkat cell line over-expressing human PD-1; PE-labeled PD-L1-Ig 20 nM final; read-out: Jurkat hPD1-PDL1 IC50. Put shortly:
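Jurkat cells over-expressing human PD-1 (8×10^3 per well, DMEM/10% FCS) preincubated with compound 2 h at 37° C, then PE-labeled human PD-L1-Ig (20 nM final) added for 1 h. Cells fixed with paraformaldehyde, Hoechst-stained, and bound fluorescence quantified by high-content imaging.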
Take `Cc1cccc(C[C@@H]2NC(=O)[C@H](CC(=O)O)NC(=O)[C@H](Cc3ccc(OCC(=O)O)cc3)NC(=O)[C@H](C(C)O)NC(=O)CSC[C@@H](C(=O)N[C@@H](CCN)C(=O)NCCCCCCCCCCCCC(=O)O)NC(=O)[C@H](CO)NC(=O)[C@H](C(C)(C)O)NC(=O)[C@H](CC3CCCCC3)NC(=O)[C@H](CCN)NC(=O)[C@@H](CC(C)C)NC(=O)[C@H](CCCN)NC(=O)[C@H](Cc3ccc(OCC(=O)O)cc3)NC(=O)[C@H](Cc3ccc(-c4ccccc4)cc3)NC(=O)[C@H](Cc3ccc(C(F)(F)F)cc3)NC2=O)c1` (stereo partly drawn) [Compound 3810] ({CH2CO}-[Thr(3ξ)]Y(Carboxymethyl)D[Phe(3-Me)][Phe(4-CF3)][Bip]Y(Carboxymethyl)[Orn][dL][Dab][Cha][Val(3-OH)]SC[Dab]-{NH(CH2)12COOH}; thioether N-14): the IC50 turned out to be 19.8 nM.

For `Cc1cccc(C[C@@H]2NC(=O)[C@H](CC(=O)O)NC(=O)[C@H](Cc3ccc(OCC(=O)O)cc3)NC(=O)[C@H](Cc3ccc(C#N)cc3)NC(=O)CSC[C@@H](C(=O)N[C@@H](CCN)C(=O)NCCOCCOCC(=O)NCCCCCCCCCCC(=O)O)NC(=O)[C@H](CO)NC(=O)[C@H](C(C)(C)O)NC(=O)[C@H](CC3CCCCC3)NC(=O)[C@H](CCN)NC(=O)[C@@H](CC(C)C)NC(=O)[C@H](CCCN)NC(=O)[C@H](Cc3ccc(OCC(=O)O)cc3)NC(=O)[C@H](Cc3ccc(-c4ccccc4)cc3)NC(=O)[C@H](Cc3ccc(OCC(=O)O)cc3)NC2=O)c1` [Compound 2240] ({CH2CO}-[Phe(4-CN)]Y(Carboxymethyl)D[Phe(3-Me)]Y(Carboxymethyl)[Bip]Y(Carboxymethyl)[Orn][dL][Dab][Cha][Val(3-OH)]SC[Dab][AEEA][Aun]-OH; thioether N-14), the IC50 was 7.3 nM. Then `CC[C@@H]1NC(=O)CSC[C@@H](C(=O)N[C@@H](CCN)C(=O)NCCOCCOCC(=O)NCCOCCOCC(=O)NCCCCCCCCCCC(=O)O)NC(=O)[C@H](CO)NC(=O)[C@H](C(C)(C)O)NC(=O)[C@H](CC2CCCCC2)NC(=O)[C@H](CCN)NC(=O)[C@@H](CC(C)C)NC(=O)[C@H](CCCN)NC(=O)[C@H](Cc2ccc(C(=O)O)cc2)NC(=O)[C@H](Cc2ccc(-c3ccccc3)cc2)NC(=O)[C@H](Cc2ccc(C(=O)O)cc2)NC(=O)[C@H](Cc2cccc(C)c2)NC(=O)[C@H](CC(=O)O)NC(=O)[C@H](Cc2ccc(OCC(=O)O)cc2)NC1=O` [Compound 2882] ({CH2CO}-[Abu]Y(Carboxymethyl)D[Phe(3-Me)][Phe(4-COOH)][Bip][Phe(4-COOH)][Orn][dL][Dab][Cha][Val(3-OH)]SC[Dab][AEEA][AEEA][Aun]-OH; thioether N-14), with 1.6 nM; and `Cc1cccc(C[C@@H]2NC(=O)[C@H](CC(=O)O)NC(=O)[C@H](Cc3ccc(OCC(=O)O)cc3)NC(=O)[C@H](CCCNC(=N)N)NC(=O)CSC[C@@H](C(=O)N[C@@H](CCN)C(=O)NCCCCCCCCCCC(=O)O)NC(=O)[C@H]([C@@H](C)O)NC(=O)[C@H](C(C)C)NC(=O)[C@H](CC3CCCCC3)NC(=O)[C@H](CCN)NC(=O)[C@@H](CC(C)C)NC(=O)[C@H](C)NC(=O)[C@H](C(C)(C)O)NC(=O)[C@H](Cc3ccc(-c4ccccc4)cc3)NC(=O)[C@H](Cc3ccc(OCC(=O)O)cc3)NC2=O)c1` [Compound 2139] ({CH2CO}-RY(Carboxymethyl)D[Phe(3-Me)]Y(Carboxymethyl)[Bip][Val(3-OH)]A[dL][Dab][Cha]VTC[Dab][Aun]-OH; thioether N-14), with 21.1 nM; and `CCC(C)[C@@H]1NC(=O)[C@H](Cc2ccc(-c3ccccc3)cc2)NC(=O)[C@H](C(C)C)NC(=O)[C@H](Cc2c[nH]c3ccccc23)NC(=O)[C@H](CC(=O)O)NC(=O)[C@H](Cc2ccncc2)NC(=O)[C@H](C(C)O)NC(=O)CSC[C@@H](C(=O)N[C@@H](CC(N)=O)C(=O)NCCOCCOCC(=O)N[C@@H](CCCN)C(=O)NCCCCCCCCCCCCC(=O)O)NC(=O)[C@H](CO)NC(=O)[C@H](C(C)C)NC(=O)[C@H](CC2CCCCC2)NC(=O)[C@H](CCN)NC(=O)[C@@H](CC(C)C)NC(=O)[C@H](CCCN)NC1=O` (stereo partly drawn) [Compound 3040] ({CH2CO}-[Thr(3ξ)][4Pal]DWV[Bip][Ile(3ξ)][Orn][dL][Dab][Cha]VSCN[AEEA][Orn]-{NH(CH2)12COOH}; thioether N-14), with 15 nM. Then `Cc1cccc(C[C@@H]2NC(=O)[C@H](CC(=O)O)NC(=O)[C@H](Cc3ccc(OCC(=O)O)cc3)NC(=O)[C@H](CCCNC(=N)N)NC(=O)CSC[C@@H](C(=O)N[C@@H](CCN)C(=O)NCCCCCCCCCCC(=O)O)NC(=O)[C@H](CCCNC(N)=O)NC(=O)[C@H](C(C)C)NC(=O)[C@H](CC3CCCCC3)NC(=O)[C@H](CCN)NC(=O)[C@@H](CC(C)C)NC(=O)[C@H](CCCN)NC(=O)[C@H](Cc3ccc(OCC(=O)O)cc3)NC(=O)[C@H](Cc3ccc(-c4ccccc4)cc3)NC(=O)[C@H](C(C)C)NC2=O)c1` [Compound 3383] ({CH2CO}-RY(Carboxymethyl)D[Phe(3-Me)]V[Bip]Y(Carboxymethyl)[Orn][dL][Dab][Cha]V[Cit]C[Dab][Aun]-OH; thioether N-14), with 8.2 nM. Then `Cc1cccc(C[C@@H]2NC(=O)[C@H](CC(=O)O)NC(=O)[C@H](Cc3ccc(OCC(=O)O)cc3)NC(=O)[C@H](CCCNC(=N)N)NC(=O)CSC[C@@H](C(=O)N[C@@H](CCN)C(=O)NCCOCCOCC(=O)NCCCCCCCCCCCCC(=O)O)NC(=O)[C@H](CO)NC(=O)[C@H](C(C)(C)O)NC(=O)[C@H](CC3CCCCC3)NC(=O)[C@H](CCN)NC(=O)[C@@H](CC(C)C)NC(=O)[C@H](CCCN)NC(=O)[C@H](Cc3ccc(OCC(=O)O)cc3)NC(=O)[C@H](Cc3ccc(-c4ccccc4)cc3)NC(=O)[C@H](Cc3ccc(OCC(=O)O)cc3)NC2=O)c1` [Compound 2253] ({CH2CO}-RY(Carboxymethyl)D[Phe(3-Me)]Y(Carboxymethyl)[Bip]Y(Carboxymethyl)[Orn][dL][Dab][Cha][Val(3-OH)]SC[Dab][AEEA]-{NH(CH2)12COOH}; thioether N-14), with 9.1 nM; and `Cc1cccc(C[C@@H]2NC(=O)[C@H](CC(=O)O)NC(=O)[C@H](Cc3ccc(OCC(=O)O)cc3)NC(=O)[C@H](CN)NC(=O)CSC[C@@H](C(=O)N[C@@H](CCN)C(=O)NCCOCCOCC(=O)NCCCCCCCCCCC(=O)O)NC(=O)[C@H](CCCN)NC(=O)[C@H](C(C)C)NC(=O)[C@H](CC3CCCCC3)NC(=O)[C@H](CCN)NC(=O)[C@@H](CC(C)C)NC(=O)[C@H](CCCN)NC(=O)[C@H](Cc3ccc(O)cc3)NC(=O)[C@H](Cc3ccc(-c4ccccc4)cc3)NC(=O)[C@H](Cc3ccc(CN)cc3)NC2=O)c1` [Compound 2067] ({CH2CO}-[Dap]Y(Carboxymethyl)D[Phe(3-Me)][Phe(4-CH2NH2)][Bip]Y[Orn][dL][Dab][Cha]V[Orn]C[Dab][AEEA][Aun]-OH; thioether N-14), with 53.2 nM. In the case of `CC(C)C[C@H]1NC(=O)[C@H](CCCN)NC(=O)[C@H](Cc2ccc(O)cc2)NC(=O)[C@H](Cc2ccc(-c3ccccc3)cc2)NC(=O)[C@H](Cc2ccc(O)cc2)NC(=O)[C@H](Cc2c[nH]c3ccccc23)NC(=O)[C@H](CC(=O)O)NC(=O)[C@H](Cc2ccc(OCC(=O)O)cc2)NC(=O)[C@H](CN)NC(=O)CSC[C@@H](C(=O)N[C@@H](CCN)C(=O)NCCCCCCCCCCC(=O)O)NC(=O)[C@H](CCCCN)NC(=O)[C@H](C(C)O)NC(=O)[C@H](CC2CCCCC2)NC(=O)[C@H](CCN)NC1=O` (stereo partly drawn) [Compound 3657] ({CH2CO}-[Dap]Y(Carboxymethyl)DWY[Bip]Y[Orn][dL][Dab][Cha][Thr(3ξ)]KC[Dab][Aun]-OH; thioether N-14), the IC50 was 121 nM. In the case of `Cc1cccc(C[C@@H]2NC(=O)[C@H](CC(=O)O)NC(=O)[C@H](Cc3ccc(OCC(=O)O)cc3)NC(=O)[C@H](CCCN)NC(=O)CSC[C@@H](C(=O)N[C@@H](CCN)C(=O)NCCCCCCCCCCC(=O)O)NC(=O)[C@H]([C@@H](C)O)NC(=O)[C@H](C(C)C)NC(=O)[C@H](CC3CCCCC3)NC(=O)[C@H](CCN)NC(=O)[C@@H](CC(C)C)NC(=O)[C@H](CCCN)NC(=O)[C@H](CCCNC(N)=O)NC(=O)[C@H](Cc3ccc(-c4ccccc4)cc3)NC(=O)[C@H](C(C)C)NC2=O)c1` [Compound 2822] ({CH2CO}-[Orn]Y(Carboxymethyl)D[Phe(3-Me)]V[Bip][Cit][Orn][dL][Dab][Cha]VTC[Dab][Aun]-OH; thioether N-14) it was 21.9 nM; in that of `Cc1cccc(C[C@@H]2NC(=O)[C@H](CC(=O)O)NC(=O)[C@H](Cc3ccc(OCC(=O)O)cc3)NC(=O)[C@H](CCCNC(=N)N)NC(=O)CSC[C@@H](C(=O)N[C@H](CC(N)=O)C(=O)NCCCCCCCCCCC(=O)O)NC(=O)[C@H](C(C)O)NC(=O)[C@H](C(C)O)NC(=O)[C@H](CC3CCCCC3)NC(=O)[C@H](CCN)NC(=O)[C@@H](CC(C)C)NC(=O)[C@H](CCCN)NC(=O)[C@H](Cc3ccc(OCC(=O)O)cc3)NC(=O)[C@H](Cc3ccc(-c4ccccc4)cc3)NC(=O)[C@H](Cc3ccc(OCC(=O)O)cc3)NC2=O)c1` (stereo partly drawn) [Compound 3523] ({CH2CO}-RY(Carboxymethyl)D[Phe(3-Me)]Y(Carboxymethyl)[Bip]Y(Carboxymethyl)[Orn][dL][Dab][Cha][Thr(3ξ)][Thr(3ξ)]C[dN][Aun]-OH; thioether N-14), 121 nM; in that of `Cc1cccc(C[C@@H]2NC(=O)[C@H](CC(=O)O)NC(=O)[C@H](Cc3ccc(OCC(=O)O)cc3)NC(=O)C(CN3CCOCC3)NC(=O)CSC[C@@H](C(=O)N[C@@H](CCN)C(=O)NCCCCCCCCCCCCC(=O)O)NC(=O)[C@H](CO)NC(=O)[C@H](C(C)(C)O)NC(=O)[C@H](CC3CCCCC3)NC(=O)[C@H](CCN)NC(=O)[C@@H](CC(C)C)NC(=O)[C@H](CCCN)NC(=O)[C@H](Cc3ccc(OCC(=O)O)cc3)NC(=O)[C@H](Cc3ccc(-c4ccccc4)cc3)NC(=O)[C@H](Cc3ccc(OCC(=O)O)cc3)NC2=O)c1` (stereo partly drawn) [Compound 2260] ({CH2CO}-[X17]Y(Carboxymethyl)D[Phe(3-Me)]Y(Carboxymethyl)[Bip]Y(Carboxymethyl)[Orn][dL][Dab][Cha][Val(3-OH)]SC[Dab]-{NH(CH2)12COOH}; thioether N-14), 9.4 nM.
